Results on 5 molecules are retold here after patent US9795600B2, “Method for treating abnormal β-amyloid mediated diseases” (NATIONAL TAIWAN NORMAL UNIVERSITY, priority 2014, dated 2017).

Experiment [1] concerns Tet-On Aβ-GFP HEK-293 cells. Kind of experiment: Tet-On Aβ-GFP HEK-293 cell assay (GFP fluorescence, HCA). The settings on record: 8 hr pretreatment, Dox 64 hr, untreated cells = 100%. It counts as cell-based, human. From the text:
For cell assay, we used a HEK-293 cell clone (human embryonic kidney cells) with Tet-On Aβ-GFP expression as a screening platform. GFP fluorescence was used to reflect Aβ aggregation status as Aβ aggregated rapidly to cause the fused GFP misfolded. Inhibition of Aβ aggregation may improve GFP misfolding, leading to increasing fluorescence on Aβ-GFP expressing cells. Tet-On Aβ-GFP HEK-293 cells were pretreated with different concentrations of compounds 1, 2, 6, 7 and curcumin for 8 hr before inducing Aβ-GFP expression. Then doxycycline (Dox) (10 μM) was added to the medium for 64 hr to induce Aβ-GFP expression, and GFP fluorescence was assessed by a high-content analysis (HCA) system (ImageXpressMICRO, available from Molecular Devices). To normalize, the relative GFP fluorescence of untreated cells (untreated with compounds 1, 2, 6 and 7, and curcumin) is set as 100%. *, P<0.05 as compared to the untreated cells; #, P<0.05 as compared to the same concentration curcumin-treated cells (n=3).

A further experiment concerns HSPB1. Kind of experiment: HSPB1 expression in Aβ-GFP SH-SY5Y cells (Western blot). It counts as cell-based, human. The conditions noted are these: 5 μM; uninduced cells = 100%, induced untreated cells 90%. From the text: The result is shown in FIG. 6, wherein the relative HSPB1 level of uninduced cells is set as 100%. *, P<0.05 between induced vs uninduced cells or compound-treated vs. untreated cells (n=3).

Another experiment concerns the target T1, Trx-His-Aβ protein (Homo sapiens, UniProt P05067).
T1 construct: the inventors overexpressed Trx-His tagged Aβ construct in E. coli; made in house; host or cells: E. coli
Kind of experiment: Trx-His-Aβ biochemical assay (thioflavin T staining). The settings on record: Trx-His-Aβ 10 μM, 37° C., 48 hr, Trx-His-Aβ with 2 days' incubation = 100%. The procedure: Aggregation of β-amyloid (Aβ) was considered as target for intervention. For the biochemical assay, the inventors overexpressed Trx-His tagged Aβ construct in E. coli. After metal-affinity chromatography purification, the misfolded Trx-His-Aβ proteins can be identified by thioflavin T staining assay. The fluorescent intensity is increased after thioflavin T binds misfolded Trx-His-Aβ protein, and thus the misfolding level of Trx-His-Aβ protein can be measured. […] Then thioflavin T (10 μM) was added for 5 min and fluorescence analyzed on a microplate reader (excitation: 420 nm, emission: 485 nm). To normalize, the relative thioflavin T fluorescence of Trx-His-Aβ protein with 2 days' incubation at 37° C. is set as 100%. *, P<0.05 (n=3).

The test system of experiment [2] is mouse hippocampal primary culture. Kind of experiment: Mouse hippocampal primary culture under oligomeric Aβ toxicity. The settings on record: 1, 10 or 30 μM, oligomeric Aβ 1 μM, vs. Aβ alone; for total cells (DAPI staining) against oligomeric Aβ toxicity: FIG. 7(A); for mature neurons (NeuN staining) against oligomeric Aβ toxicity: FIG. 7(B); for synaptophysin level against oligomeric Aβ toxicity: FIG. 7(F); for neurite outgrowth (process, branch, length; MAP2 staining) against oligomeric Aβ toxicity: FIGS. 7(C)-(E). The format is cell-based. As for the experimental part:
Postnatal day 0-1 mouse hippocampus was isolated for primary culture, and used to confirm the neuroprotective potential of the compounds of the present invention. Oligomeric Aβ (1 μM) was applied to the primary culture after the indolylquinoline compound (compounds 1, 2, 6 and 7) administration (1, 10, or 30 μM) at day 9. Cells were harvested 1 hr later for immunocytochemical analysis and quantitated the total cell number (as shown in FIG. 7(A), by DAPI staining), mature neuron number (as shown in FIG. 7(B), by NeuN antibody staining), neurite process (as shown in FIG. 7(C), by MAP2 antibody staining), neurite branch (as shown in FIG. 7(D), by MAP2 antibody staining), neurite length (as shown in FIG. 7(E), by MAP2 antibody staining), and synaptophysin expression level (as shown in FIG. 7(F), by synaptophysin antibody staining) In FIG. 7(A) to (F), the relative amount of cells treated with vesicle (hexafluoroisopropanol) is set as 100%. ###, P<0.001 between cells treated with Aβ and vehicle (n=3). *, P<0.05; **, P<0.01; ***, P<0.001 between cells treated with Aβ combined the compound of the present invention and Aβ alone (n=3).

Experiment [3] deals with Tet-On Aβ-GFP HEK-293 cells. Kind of experiment: ROS assay in Tet-On Aβ-GFP HEK-293 cells. The format is cell-based, human. The conditions noted are these: 5 μM; uninduced cells = 100%, induced untreated cells 128%. As for the experimental part: Given that Aβ deposition causes cell death via a number of potential mechanisms including oxidative stress, the inventor also performed ROS assay with curcumin or synthetic indolylquinoline compounds 1, 2, 6 and 7 treatment (5 μM).

Experiment [4] deals with Tet-On Aβ-GFP SH-SY5Y cells. Kind of experiment: Neurite outgrowth in Tet-On Aβ-GFP SH-SY5Y cells (TUBB3 immunostaining, HCA). The format is cell-based, human. The conditions noted are these: 5 μM; Dox 6 days; uninduced cells = 100%, induced untreated cells 87%. The procedure: Tet-On Aβ human neuroblastoma SH-SY5Y cells were used to examine the neuroprotective potential of the compounds of the present invention. Tet-On Aβ-GFP SH-SY5Y cells were plated into 24-well plates with 10 μM retinoic acid (RA), grown for 24 hr and treated with tested indolylquinoline compounds 1, 2, 6 and 7 (5 μM) for 8 hr. Then doxycycline (10 μM) was added to the medium to for 6 days. Neurite outgrowth was assessed after TUBB3 immunostaining, and examined with the HCA system. The result is shown in FIG. 5, wherein the relative neurite outgrowth of uninduced cells (untreated with Dox) is set as 100%. *, P<0.05 between induced vs. uninduced cells or compound-treated vs. untreated cells (n=3).

[5] abbreviates: 1.2˜5.0 μM, above 80% of viable cells.

T1 sequence (P05067 672-713 limits assumed): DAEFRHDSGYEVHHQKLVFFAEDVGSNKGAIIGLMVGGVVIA

Take `CC(=O)C(=Cc1ccccc1[N+](=O)[O-])Cc1c(C)[nH]c2ccccc12` [compound 2]: the “relative GFP fluorescence (Aβ-GFP)” value in experiment [1] (1.2˜2.5 μM, above 80% of viable cells) was 107˜120%. The “relative HSPB1 level” value with HSPB1 is 112%. On Trx-His-Aβ protein (10˜20 μM compound), the “relative thioflavin T fluorescence (misfolded Trx-His-Aβ aggregation)” value is on record as 74˜70%. In experiment [2], the “total cells (DAPI staining) against oligomeric Aβ toxicity” value (“total cells (DAPI staining)” below) was “significantly improved”; the “mature neurons (NeuN staining) against oligomeric Aβ toxicity” value (“mature neurons (NeuN staining)” for short) is reported as “significantly improved”; the “synaptophysin level against oligomeric Aβ toxicity” value (“synaptophysin level” for short) was “significantly improved”; the “neurite outgrowth (process, branch, length; MAP2 staining) against oligomeric Aβ toxicity” value is “significantly improved”.
Turning to `CCc1cccc2c(CC(=Cc3ccccc3[N+](=O)[O-])C(C)=O)c[nH]c12` [compound 6], the “relative GFP fluorescence (Aβ-GFP)” value in experiment [1] (setting [5]) is given as 107˜130%. For the same molecule, in the experiment with HSPB1, the “relative HSPB1 level” value is 116%. The “relative thioflavin T fluorescence (misfolded Trx-His-Aβ aggregation)” value at Trx-His-Aβ protein (5˜20 μM compound) is listed as 90˜71%. Also, in experiment [2], the “total cells (DAPI staining)” value is on record as “significantly improved”; the “mature neurons (NeuN staining)” value is given as “significantly improved”; the “synaptophysin level” value is “significantly improved”; the “neurite outgrowth (process, branch, length; MAP2 staining) against oligomeric Aβ toxicity” value is recorded as “significantly improved”.
As for `Cc1nc2ccccc2cc1Cc1c[nH]c2ccccc12` [compound 7], the “relative GFP fluorescence (Aβ-GFP)” value in experiment [1] (1.2 μM, above 80% of viable cells) was 105%. Besides, the “relative HSPB1 level” value in the experiment with HSPB1 is recorded as 117%. The “relative thioflavin T fluorescence (misfolded Trx-His-Aβ aggregation)” value on Trx-His-Aβ protein (20 μM compound) is 84%. Further, in experiment [2], the “total cells (DAPI staining)” value was “significantly improved”; the “mature neurons (NeuN staining)” value was “significantly improved”; the “synaptophysin level” value is “significantly improved”; the “neurite outgrowth (process, branch, length; MAP2 staining) against oligomeric Aβ toxicity” value is given as “significantly improved”.
As for `CC(=O)C(=Cc1ccccc1[N+](=O)[O-])Cc1c[nH]c2ccccc12` [compound 1], the “relative GFP fluorescence (Aβ-GFP)” value in experiment [1] (setting [5]) was 112˜129%. Moreover, the “relative HSPB1 level” value in the experiment with HSPB1 came out at 126%. Also, at Trx-His-Aβ protein (20 μM compound), the “relative thioflavin T fluorescence (misfolded Trx-His-Aβ aggregation)” value stood at 79%. Further, in experiment [2], the “total cells (DAPI staining)” value is given as “significantly improved”; the “mature neurons (NeuN staining)” value is reported as “significantly improved”; the “synaptophysin level” value is “significantly improved”; the “neurite outgrowth (process, branch, length; MAP2 staining) against oligomeric Aβ toxicity” value is recorded as “significantly improved”.
In the case of `COc1cc(/C=C/C(=O)CC(=O)/C=C/c2ccc(O)c(OC)c2)ccc1O` [curcumin, reference compound], the “relative GFP fluorescence (Aβ-GFP)” value in experiment [1] (2.5˜5.0 μM) is 111˜122%. In addition, the “relative HSPB1 level” value in the experiment on HSPB1 turned out to be 123%. In addition, the “relative ROS level” value in experiment [3] was determined as 86%. Also, the “relative thioflavin T fluorescence (misfolded Trx-His-Aβ aggregation)” value at Trx-His-Aβ protein (5˜20 μM compound) is listed as 76˜54%. The relative neurite outgrowth in experiment [4] is 105%.
